Laboratory results published in patent US12624044B2, “SMARCA degraders and uses thereof” (Kymera Therapeutics, Inc., priority 2019, dated 2026).

Target: SMARCA2 (Homo sapiens, UniProt P51531)
Experiment: MSD SMARCA2 degradation in A549 cell line
Type: cell-based
Conditions: 24 h; for Dmax: A549, A549 cells; for DC50: A549 cells, read-out: SMARCA2 MSD A549 degradation 24 h: Average external-Abs DC50
Procedure: Cells were seeded into 96-well plates (A549 cells: 2×10^4 cells/well/100 ul media) abd incubated overnight. The next day, 200 nl compound were added into the intermediate plate with Echo (Labcyte 550) from source plate containing a 3-fold serial dilution from top concentration of 1 mM. The culture medium was changed with 80 ul of fresh medium and 80 ul of 2× compound solution was added into the well to make a final concentration of 1000 nM, 333.3 nM, 111.1 nM, 37.04 nM, 12.35 nM, 4.115 nM, 1.372 nM, 0.457 nM, 0.152 nM and 0 nM (DMSO). The wells were mixed and then incubated for 24 hours. The media was aspirated from the cultures and 60 ul pre-chilled PIPA lysis buffer (Boston BioProducts BP-115D) with protease/phosphatase inhibitor (Roche 05892791001/Roche 04906837001) was added into the well to lyze the cells for 20 minutes at 4° C. The MSD plate (L15XA) was coated with 40 ul cell lysate and incubated at 4° C. overnight. The next day, the plate was washed three times with TBST (CST #9997S), 150 ul/well. The MSD plates was blocked with 150 ul blocking buffer per well and shaked for 1 hr at RT, 600 rpm. The blocking buffer was 3% Blocker A (MSD, R93BA-4) in TBST. The MSD plate was washed three times with 150 ul/well of TBST and 25 ul/well of detection antibody (Rabbit anti-SMARCA2/BRM antibody, 100 μg/ml, ab223735) was added at final concentration of 1 ug/ml diluted in 1% Blocking buffer and shaken for 1 hour at RT, 600 rpm. The MSD plate was washed three times with 150 ul/well of TBST and 25 ul/well of SULFO-TAG anti-rabbit antibody (MSD, R32AB-1) was added at final concentration of 1 ug/ml diluted in 1% Blocking buffer and shaken for 1 hour at RT, 600 rpm. The MSD plate was washed three times with 150 ul/well of TBST and 150 ul/well of 2×MSD reading buffer diluted from 4× (MSD, R92TC-2) with water was added. Lastly, the MSD instrument was read.
The letter codes for the percentage of SMARCA2 degradation after 24 hours (Dmax %) include: A (>90% degradation), B (>70-90% degradation), C (50-70% degradation), and D (<50% degradation).

Chain of SMARCA2 (P51531 whole entry): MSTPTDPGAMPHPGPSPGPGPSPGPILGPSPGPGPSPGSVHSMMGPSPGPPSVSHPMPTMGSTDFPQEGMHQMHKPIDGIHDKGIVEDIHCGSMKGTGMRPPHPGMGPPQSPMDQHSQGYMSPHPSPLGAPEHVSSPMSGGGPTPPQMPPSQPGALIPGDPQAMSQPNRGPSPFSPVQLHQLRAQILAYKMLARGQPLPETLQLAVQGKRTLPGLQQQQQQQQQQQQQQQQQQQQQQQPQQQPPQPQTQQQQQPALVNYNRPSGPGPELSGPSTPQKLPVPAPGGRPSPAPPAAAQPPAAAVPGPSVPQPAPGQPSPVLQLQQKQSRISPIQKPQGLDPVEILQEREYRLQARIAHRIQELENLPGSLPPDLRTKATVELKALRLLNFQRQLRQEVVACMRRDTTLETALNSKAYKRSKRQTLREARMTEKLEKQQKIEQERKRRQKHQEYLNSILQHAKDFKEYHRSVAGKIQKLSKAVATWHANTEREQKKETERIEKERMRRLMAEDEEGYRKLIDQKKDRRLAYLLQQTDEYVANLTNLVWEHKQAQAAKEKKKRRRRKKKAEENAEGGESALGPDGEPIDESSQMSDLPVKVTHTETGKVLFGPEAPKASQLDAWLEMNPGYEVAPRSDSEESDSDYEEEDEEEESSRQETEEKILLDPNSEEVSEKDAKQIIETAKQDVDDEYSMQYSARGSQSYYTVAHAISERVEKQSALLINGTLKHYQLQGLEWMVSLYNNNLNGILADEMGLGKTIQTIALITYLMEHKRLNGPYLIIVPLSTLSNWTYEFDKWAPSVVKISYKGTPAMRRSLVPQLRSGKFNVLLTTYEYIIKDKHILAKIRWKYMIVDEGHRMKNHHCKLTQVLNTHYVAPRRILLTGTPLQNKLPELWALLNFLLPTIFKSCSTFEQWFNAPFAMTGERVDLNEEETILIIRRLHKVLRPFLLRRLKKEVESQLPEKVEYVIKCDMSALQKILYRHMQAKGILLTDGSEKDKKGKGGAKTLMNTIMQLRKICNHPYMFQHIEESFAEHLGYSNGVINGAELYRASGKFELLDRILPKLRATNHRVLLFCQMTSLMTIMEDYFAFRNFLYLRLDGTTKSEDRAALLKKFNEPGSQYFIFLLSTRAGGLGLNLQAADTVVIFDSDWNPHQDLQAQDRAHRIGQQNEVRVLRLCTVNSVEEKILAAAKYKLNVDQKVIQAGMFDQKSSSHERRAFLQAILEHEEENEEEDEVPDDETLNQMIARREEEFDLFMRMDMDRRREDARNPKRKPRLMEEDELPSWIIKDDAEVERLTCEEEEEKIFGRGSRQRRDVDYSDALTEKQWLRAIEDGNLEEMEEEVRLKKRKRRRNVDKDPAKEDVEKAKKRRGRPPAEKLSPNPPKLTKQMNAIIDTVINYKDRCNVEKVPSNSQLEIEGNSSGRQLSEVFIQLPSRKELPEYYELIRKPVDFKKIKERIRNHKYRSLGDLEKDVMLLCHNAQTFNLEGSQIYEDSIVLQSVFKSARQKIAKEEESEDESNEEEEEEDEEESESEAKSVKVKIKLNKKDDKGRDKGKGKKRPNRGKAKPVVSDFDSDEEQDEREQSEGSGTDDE

| SMILES | Dmax | DC50 |
| --- | --- | --- |
| Cc1ncsc1-c1ccc(CNC(=O)[C@@H]2C[C@@H](O)CN2C(=O)[C@@H](NC(=O)[C@H]2CC3(C[C@H](CN(C)Cc4cnc(N5C6CCC5CN(c5cc(-c7ccccc7O)nnc5N)C6)nc4)C3)C2)C(C)(C)C)cc1 (stereo partly drawn) [I-417] | > 90% | 100 to 500 nM |
| Cc1ncsc1-c1ccc(CNC(=O)[C@@H]2C[C@@H](O)CN2C(=O)[C@@H](NC(=O)C2CC=C(c3nccc(N4C5CCC4CN(c4cc(-c6ccccc6O)nnc4N)C5)n3)CC2)C(C)(C)C)cc1 (stereo partly drawn) [I-418] | > 90% | 100 to 500 nM |
| Cc1ncsc1-c1ccc(CNC(=O)[C@@H]2C[C@@H](O)CN2C(=O)[C@@H](NC(=O)[C@H]2CC[C@@H](Cc3cnc(N4C5CCC4CN(c4cc(-c6ccccc6O)nnc4N)C5)nc3)CC2)C(C)(C)C)c(C(F)(F)F)c1 [I-421] | 70 to 90% | 100 to 500 nM |
| Cc1ncsc1-c1ccc(CNC(=O)[C@@H]2C[C@@H](O)CN2C(=O)[C@@H](NC(=O)[C@H]2CC[C@H](Cc3cnc(N4C5CCC4CN(c4cc(-c6ccccc6O)nnc4N)C5)nc3)CC2)C(C)(C)C)c(C(F)(F)F)c1 [I-422] | > 90% | 100 to 500 nM |
| Cc1ncsc1-c1ccc(CNC(=O)[C@@H]2C[C@@H](O)CN2C(=O)[C@@H](NC(=O)[C@H]2CC3(C[C@H](CN4CCC(c5cnc(N6C7CCC6CN(c6cc(-c8ccccc8O)nnc6N)C7)nc5)CC4)C3)C2)C(C)(C)C)cc1 (stereo partly drawn) [I-426] | > 90% | 100 to 500 nM |
| Cc1ncsc1-c1ccc(CNC(=O)[C@@H]2C[C@@H](O)CN2C(=O)[C@@H](NC(=O)C23CCC(CN(C)Cc4cnc(N5C6CCC5CN(c5cc(-c7ccccc7O)nnc5N)C6)nc4)(CC2)CC3)C(C)(C)C)cc1 [I-429] | 70 to 90% | 100 to 500 nM |
| Cc1ncsc1-c1ccc(CNC(=O)[C@@H]2C[C@@H](O)CN2C(=O)[C@@H](NC(=O)[C@H]2CC[C@@H](N3CC(c4cnc(N5C6CCC5CN(c5cc(-c7ccccc7O)nnc5N)C6)nc4)C3)CC2)C(C)(C)C)cc1 [I-436] | > 90% | 100 to 500 nM |
| Cc1ncsc1-c1ccc(CNC(=O)[C@@H]2C[C@@H](O)CN2C(=O)[C@@H](NC(=O)[C@H]2CC[C@@H](c3cnc(N4C5CCC4CN(c4cc(-c6ccccc6O)nnc4N)C5)nc3C)CC2)C(C)(C)C)cc1 [I-440] | > 90% | 100 to 500 nM |
| Cc1ncsc1-c1ccc(CNC(=O)[C@@H]2C[C@@H](O)CN2C(=O)[C@@H](NC(=O)[C@H]2CC3CCC2C[C@@H]3c2cnc(N3C4CCC3CN(c3cc(-c5ccccc5O)nnc3N)C4)nc2)C(C)(C)C)cc1 (stereo partly drawn) [I-441] | > 90% | 100 to 500 nM |
| Cc1ncsc1-c1ccc(CNC(=O)[C@@H]2C[C@@H](O)CN2C(=O)[C@@H](NC(=O)C2CC3CCC2C[C@H]3c2cnc(N3C4CCC3CN(c3cc(-c5ccccc5O)nnc3N)C4)nc2)C(C)(C)C)c(C(F)(F)F)c1 (stereo partly drawn) [I-442] | 50 to 70% | 501 to 1000 nM |
| Cc1ncsc1-c1ccc(CNC(=O)[C@@H]2C[C@@H](O)CN2C(=O)[C@@H](NC(=O)CNCc2cccc(C#Cc3cc(NC(=O)Nc4cc(F)ncc4CO)ccn3)c2)C(C)(C)C)cc1 [I-487, (2S,4R)-1-((S)-2-(2-((3-((4-(3-(2-fluoro-5-(hydroxymethyl)pyridin-4-yl)ureido)pyridin-2-yl)ethynyl)benzyl)amino)acetamido)-3,3-dimethylbutanoyl)-4-hydroxy-N-(4-(4-methylthiazol-5-yl)benzyl)pyrrolidine-2-carboxamide] | < 50% | > 1000 nM |
| Cc1ncsc1-c1ccc(CNC(=O)[C@@H]2C[C@@H](O)CN2C(=O)[C@@H](NC(=O)CCCNCc2cccc(C#Cc3cc(NC(=O)Nc4cc(F)ncc4CO)ccn3)c2)C(C)(C)C)cc1 [I-488] | < 50% | > 1000 nM |
| Cc1ncsc1-c1ccc(CNC(=O)[C@@H]2C[C@@H](O)CN2C(=O)[C@@H](NC(=O)CCCCCNCc2cccc(C#Cc3cc(NC(=O)Nc4cc(F)ncc4CO)ccn3)c2)C(C)(C)C)cc1 [I-489] | < 50% | > 1000 nM |
| Cc1ncsc1-c1ccc(CNC(=O)[C@@H]2C[C@@H](O)CN2C(=O)[C@@H](NC(=O)CCCCCCCNCc2cccc(C#Cc3cc(NC(=O)Nc4cc(F)ncc4CO)ccn3)c2)C(C)(C)C)cc1 [I-490] | < 50% | > 1000 nM |
| Cc1ncsc1-c1ccc(CNC(=O)[C@@H]2C[C@@H](O)CN2C(=O)[C@@H](NC(=O)CNCc2ccc(C#Cc3cc(NC(=O)Nc4cc(F)ncc4CO)ccn3)cc2)C(C)(C)C)cc1 [I-491] | < 50% | > 1000 nM |
| Cc1ncsc1-c1ccc(CNC(=O)[C@@H]2C[C@@H](O)CN2C(=O)[C@@H](NC(=O)CCCCCNCc2ccc(C#Cc3cc(NC(=O)Nc4cc(F)ncc4CO)ccn3)cc2)C(C)(C)C)cc1 [I-493] | < 50% | > 1000 nM |
| Cc1ncsc1-c1ccc(CNC(=O)[C@@H]2C[C@@H](O)CN2C(=O)[C@@H](NC(=O)CCCCCCCNCc2ccc(C#Cc3cc(NC(=O)Nc4cc(F)ncc4CO)ccn3)cc2)C(C)(C)C)cc1 [I-494] | < 50% | > 1000 nM |

Second part, the compound after the results:

| Dmax | DC50 | SMILES |
| --- | --- | --- |
| > 90% | 100 to 500 nM | Cc1ncsc1-c1ccc(CNC(=O)[C@@H]2C[C@@H](O)CN2C(=O)[C@@H](NC(=O)[C@H]2CC3(C[C@H](CN4CCC(n5cc(-c6cc(-c7ccccc7O)nnc6N)cn5)CC4)C3)C2)C(C)(C)C)cc1 (stereo partly drawn) [I-432] |
| < 50% | > 1000 nM | Cc1ncsc1-c1ccc(CNC(=O)[C@@H]2C[C@@H](O)CN2C(=O)[C@@H](NC(=O)[C@H]2CC[C@@H](N3CCC(N4CCC(n5cc(-c6cc(-c7ccccc7O)nnc6N)cn5)CC4)CC3)CC2)C(C)(C)C)cc1 [I-435] |
| – | 100 to 500 nM | Cc1ncsc1-c1ccc(CNC(=O)[C@@H]2C[C@@H](O)CN2C(=O)[C@@H](NC(=O)[C@H]2C[C@]3(C[C@H](CN(C)Cc4cnc(N5C6CCC5CN(c5cc(-c7ccccc7O)nnc5N)C6)nc4)C3)C2)C(C)(C)C)cc1 (stereo partly drawn) [I-443] |
| < 50% | > 1000 nM | Cc1ncsc1-c1ccc(CNC(=O)[C@@H]2C[C@@H](O)CN2C(=O)[C@@H](NC(=O)CCN2CCC(n3cc(-c4cc(-c5ccccc5O)nnc4N)cn3)CC2)C(C)(C)C)cc1 [I-458] |
| < 50% | > 1000 nM | Cc1ncsc1-c1ccc(CNC(=O)[C@@H]2C[C@@H](O)CN2C(=O)[C@@H](NC(=O)CCN(C)Cc2ccc(N3CCN(c4cc(-c5ccccc5O)nnc4N)CC3)cc2)C(C)(C)C)cc1 [I-463] |
| < 50% | > 1000 nM | Cc1ncsc1-c1ccc(CNC(=O)[C@@H]2C[C@@H](O)CN2C(=O)[C@@H](NC(=O)CCCN(C)Cc2ccc(N3CCN(c4cc(-c5ccccc5O)nnc4N)CC3)cc2)C(C)(C)C)cc1 [I-464] |
| < 50% | > 1000 nM | Cc1ncsc1-c1ccc(CNC(=O)[C@@H]2C[C@@H](O)CN2C(=O)[C@@H](NC(=O)CCN2CCC(Cn3cc(-c4cc(-c5ccccc5O)nnc4N)cn3)CC2)C(C)(C)C)cc1 [I-466] |
| < 50% | > 1000 nM | Cc1ncsc1-c1ccc(CNC(=O)[C@@H]2C[C@@H](O)CN2C(=O)[C@@H](NC(=O)CCN2CCC[C@@H](Cn3cc(-c4cc(-c5ccccc5O)nnc4N)cn3)C2)C(C)(C)C)cc1 [I-470] |
| < 50% | > 1000 nM | Cc1ncsc1-c1ccc(CNC(=O)[C@@H]2C[C@@H](O)CN2C(=O)[C@@H](NC(=O)CCCN2CCN(Cc3ccc(-c4cc(-c5ccccc5O)nnc4N)cc3)CC2)C(C)(C)C)cc1 [I-475, (2S,4R)-1-((S)-2-(4-(4-(4-(3-amino-6-(2-hydroxyphenyl)pyridazin-4-yl)benzyl)piperazin-1-yl)butanamido)-3,3-dimethylbutanoyl)-4-hydroxy-N-(4-(4-methylthiazol-5-yl)benzyl)pyrrolidine-2-carboxamide] |
